Experimental data as given in US20120065165A1, “COMPOSITIONS AND METHODS OF TREATING ENDOTHELIAL DISORDERS” (ARGINETIX, INC, priority 2008, published 2012).
Read-outs that look alike come from different tables or passages of the source.

Legend:
old rat aortic segments = assay: NO production in aortic rings (slope of DAF fluorescence); type: cell-based; conditions: old/aged rat aorta
From the text: ABH improves endothelial function by inhibiting arginase and consequently increasing NO production (by increasing L-arginine availability to eNOS) and decreasing levels of ROS (by preventing eNOS uncoupling). […] Aortic rings were dissected and pinned down, endothelial side up, on a silastic coated culture dish, and then exposed to either the NO-sensitive dye DAF, or the O2-sensitive dye DHE. Since the interaction of NO or ROS with its specific dye is cumulative, the rate of production of each species is proportional to the slope of the fluorescence emitted from the dye as measured using epifluorescence microscopy. […] SNP endothelial-independent NO donor was included as a control (Santhanam et al 2007).

arginase [1] = conditions: internal anal sphincter; cited from earlier work
[2] = tested on: lambs with chemically induced PAH; conditions: cited from earlier work
arginase [3] = conditions: cited from earlier work
[4] = in vivo; cited from earlier work
rat aortic tissues = assay: cGMP levels in aortic rings of old rats incubated with sildenafil and ABH (cGMP EIA); type: cell-based; conditions: ABH 0 nM
Procedure: The source of tissue was old (22 to 24 months) male Fischer 344 rats purchased from National Institute for Aging (NIA). The rats were anesthetized in an isoflurane chamber and euthanized. The entire length of the aorta (thoracic, arch, abdominal) were dissected out and cleaned free of connective tissue. These aorta were then sectioned into ˜3 mm long rings. Samples were collected from 2 rats and pooled. […] Rings were incubated in varying concentrations of sildenafil (0-2000 nM) and ABH (0-500 nM) prepared in 200 μL Krebs buffer for 10 min at 37° C. The rings were then snap frozen in liquid nitrogen following treatment. The next day, samples were homogenized in 200 μL 6% TCA buffer (prepared by adding TCA to DI water) at 4° C. for extraction of cyclic nucleotides. The samples were then centrifuged at 12,000 rpm for 5 min at 4° C. Protein pellets were re-dissolved in PBS to determine protein concentration, and supernatant was reserved for cGMP detection. […] ABH (MW 211.45): A stock solution of ABH at a concentration of 100 mM was prepared by dissolving 21.1 mg of ABH into 1 ml Krebs solution. This was used to prepare 5 ml of a 1 mM stock. 200 μL of the 1 mM solution were dispensed into column 12 of a 96-well plate. Six 2× dilutions were prepared in the plate. 200 μL Krebs were dispensed in column 5 to get a concentration range of 0-1000 nM (2× of final concentration). Sildenafil (MW 474.5): A stock solution of sildenafil at a concentartion of 100 mM was prepared by dissolving 47.4 mg of sildenafil into 1 ml Krebs solution; 5 ml of 2 mM stock was prepared from this. Row A received 200 μL of Krebs buffer (0 mM sildenafil), mixed well, and adjusted to a final volume of 200 μL. Next, 200 μL of the 2 mM sildenafil stock was dispensed into row H of the 96 well plate already containing the ABH dilutions ([…]). Six 2× dilutions were prepared from this to get the final concentration ranges for the two drugs. cGMP levels were determined with a cGMP kit (Amersham cGMP Enzyme immunoassay Biotrak (EIA) System Cat #RPN226) and run in accordance with the manufacture's recommendations. The assay uses a competitive fluorescent immunoassay format to measure levels of cGMP. It combines the use of a peroxidase-labelled cGMP conjugate, a specific antiserum which can be immobilized on to pre-coated microplates, and a one-pot stabilized substrate solution. […] In the absence of cGMP most of the HRP conjugate is bound to the antibody and yields a high fluorescence. Increasing concentrations of cGMP competitively decreases the binding of the HRP conjugate, decreasing the measured fluorescence (HRP activity). […] The plate was then incubated for 2 hrs at room temperature with shaking after which it is washed and the fluorescent substrate is added. The plate was incubated for an additional 10 min and then read on a Molecular Devices Gemini EM plate reader set at Ex 530 nm, Em 590 nm (endpoint mode). The signal is reported to be stable for up to 24 hrs, but was generally read within 2 hrs. […] These values were calculated based on the resultant ratio of fluorescence reading of sample divided by fluorescense reading with no cGMP (pmols/mg). For each concentration combination of sildenafil and ABH administered to cells, absorbance (OD at 450 nm) was measured. From these values, the absorbance adjusted for non-specific binding (NSB) for each sample (OD-NSB(B)) was determined from the absorbance (B) divided by the absorbance without cGMP (Bo). Using this value and the standard curve for cGMP, the log (fmol) is found and, after adjusting for the quantity of protein, the pmols of cGMP/mg protein is calculated.

[5] = tested on: hypoxia-induced pulmonary hypertension; conditions: cited from earlier work
patients with PAH [6] = conditions: oral administration; cited from earlier work
patients with PAH [7] = conditions: three times daily; cited from earlier work
PDE1 = conditions: pulmonary vascular tissue; cited from earlier work

N[C@@H](CSCCB(O)O)C(=O)O [BEC, S-(2-Boronoethyl)-L-cysteine]
NO production (slope of the DAF fluorescence) (old rat aortic segments): augments NO production

N=C(NO)NCCC[C@H](N)C(=O)O [L-HO-Arg, Nω-hydroxy-L-arginine]
NANC relaxation suppressed by excess arginase (arginase [1]): restored

CCCOc1ccccc1-c1nc2nn[nH]c2c(=O)[nH]1 [Zaprinast]
pulmonary vasodilation induced by inhaled NO ([2]; lambs with chemically induced PAH): potentiates and markedly prolongs

N=C(NO)NCC[C@H](N)C(=O)O [nor-NOHA, N^ω-hydroxy-nor-L-arginine]
in vivo inhibition of serum arginase (arginase [3]): inhibition of serum arginase | bioavailability [4]: poor bioavailability

CCCc1nn(C)c2c(=O)[nH]c(-c3cc(S(=O)(=O)N4CCN(C)CC4)ccc3OCC)nc12 [sildenafil]
Theoretical response T(x,y) based on an additive effect (rat aortic tissues; sildenafil 31 nM): 0.27 pmol/mg | pmols of cGMP/mg protein produced P(x,y) (rat aortic tissues; sildenafil 31 nM): 0.27 pmols/mg | Theoretical response T(x,y) based on an additive effect (rat aortic tissues; sildenafil 125 nM): 2.56 pmol/mg | pmols of cGMP/mg protein produced P(x,y) (rat aortic tissues; sildenafil 125 nM): 2.56 pmols/mg | Theoretical response T(x,y) based on an additive effect (rat aortic tissues; sildenafil 500 nM): 0.88 pmol/mg | pmols of cGMP/mg protein produced P(x,y) (rat aortic tissues; sildenafil 500 nM): 0.88 pmols/mg | Theoretical response T(x,y) based on an additive effect (rat aortic tissues; sildenafil 2000 nM): 0.80 pmol/mg | pmols of cGMP/mg protein produced P(x,y) (rat aortic tissues; sildenafil 2000 nM): 0.80 pmols/mg | hypoxia-induced pulmonary hypertension ([5]; mice lacking NOS3 (eNOS)): little effect | hypoxia-induced pulmonary hypertension ([5]; mouse, in vivo): substantially ablated | pulmonary vasodilator response to inhaled NO ([2]; aerosolized form, lambs with PAH): augmented | pulmonary vasodilation (patients with PAH [6]): selective pulmonary vasodilation | WHO functional class (patients with PAH [7]): improved | exercise capacity (6-minute walk test) (patients with PAH [7]): improved | pulmonary arterial pressure (patients with PAH [7]): decreased | pulmonary vascular resistance (patients with PAH [7]): decreased

CCOC(=O)C1=C[C@]2(CC)CCCN3CCc4c(n1c1ccccc41)[C@@H]32 [vinpocetine]
NO-stimulated dilation (PDE1): enhances | basal cGMP or cAMP (PDE1): little effect
